Measured values from paper PMC9632859, “Modulation of NMDA receptor activity by CR4056, an imidazoline-2 receptor ligand with analgesic properties” (Frontiers in Pain Research, 2022).

Key:
NMDA receptor [1] = experiment: NMDA-evoked currents in primary culture of cortical neurons, whole-cell patch-clamp; type: cell-based, rat
Protocol: (§1) Primary cultures of cortical (CX) and cerebellar (CB) neurons were prepared from newborn (CX) or seven days old (CB) Sprague-Dawley rats Briefly, cells from cortex and cerebellum were dispersed with trypsin (0.24 mg/ml; Sigma Aldrich, Milan, Italy) and plated at a density of 0.8 × 10^6 cells/ml on 35 mm Falcon dishes coated with poly-L-lysine (10 µg/ml, Sigma Aldrich). Cells were plated in basal Eagle's Medium (BME; Celbio, Milan, Italy), supplemented with 10% fetal bovine serum (Celbio), 2 mM glutamine, 25 mM KCl and 100 µg/ml gentamycin (Sigma Aldrich) and maintained at 37°C in 5% CO2. After 24 h in vitro, the medium was replaced with 1:1 mixture of BME and Neurobasal medium (Celbio, Milan) containing 2% B27 supplement, 1% antibiotic, and 0.25% glutamine (Invitrogen). At […] in vitro (DIV5), cytosine arabinofuranoside (Ara-C) was added at final concentration of 1 µM. Thereafter, half of the medium was replaced twice a week with Neurobasal medium containing 2% B27 supplement, 1% antibiotic, and 0.25% glutamine.
(§2) Recordings were performed in cortical and cerebellar neurons after 7–9 days in culture or in spinal cord slices from postnatal rats. All recordings were performed at room temperature, under voltage-clamp in the whole-cell configuration of the patch-clamp technique ([19]). […] Currents were amplified with an Axopatch 1D amplifier (Axon Instruments, Foster City. CA), filtered at 5 kHz, digitized at 10 kHz.
(§3) The chamber used for recording from cultured neurons was continuously perfused at 2 ml/min with an extracellular medium composed of (mM): 145 NaCl, 5 KCl, 1 CaCl2, 5 Hepes, 5 Glucose, and 20 Sucrose, pH 7.4 with NaOH. Intracellular solution contains (mM): 140 KCl, 3 MgCl2, 5 EGTA, 5 Hepes, and 2 ATP-Na, pH 7.3 with KOH.
(§4) All drugs were applied directly by gravity through a Y-tube perfusion system ([21]) in the experiments performed in culture while in slice experiments CR4056 and the receptor antagonists were bath perfused.
When CR4056 (10 µM) was delivered inside the cell through the patch pipette the response to NMDA application was recorded at time 0 (just after breaking inside the cell) and after 1.5, 3, 4.5, 6 min. The NMDA-evoked current was recorded at these time intervals and the amplitude of the current was measured.
The effect of CR 4056 in primary neuronal cultures was calculated as % variation of the NMDA-evoked current after application of the drug. A negative variation means a reduction of the control current. Off-line data analysis, curve fitting, and figure preparation were performed with Clampfit 9 or 10 (Molecular Devices, Sunnyvale, CA, United States), Origin 4.1 (Microcal, Northampton, MA, United States), and Microsoft Office (Microsoft). SigmaPlot 11 (SYSTAT, Palo Alto, CA, United States) and GraphPad Prism 9.3 (GraphPad Software, San Diego, CA, United States) were used for statistical analysis.
NMDA-evoked currents were recorded in primary culture of cortical neurons using the patch-clamp technique in the whole cell configuration. Fast application of NMDA (100 µM) and Glycine (10 µM) elicited an inward current that was decreased by CR4056 (Figure 1A); the effect was reversible and dose-dependent (Figure 1B). […] (Figure 1B).

NMDA receptor [2] = experiment: NMDA-evoked currents in primary culture of cerebellar neurons, whole-cell patch-clamp; type: cell-based, rat; conditions: CR4056 10 µM, glycine 1-500 µM, one-way ANOVA
Protocol: as §1, with “Thereafter, half of the medium was replaced twice a week with Neurobasal medium containing 2% B27 supplement, 1% antibiotic, and 0.25% glutamine.” left out
The effect of CR 4056 in primary neuronal cultures was calculated as % variation of the NMDA-evoked current after application of the drug. […]
Glycine is an important co-agonist of the NMDA receptor. To test the dependence of CR4056 modulation on glycine concentration we measured the reduction of NMDA current by CR4056 (10 µM) in the presence of 1, 5, 10, 50, 100, and 500 µM glycine.

[3] = system: field potentials from dorsal horn laminae I-II (mainly mediated by AMPARs); experiment: Extracellular field potentials evoked by dorsal root stimulation in spinal cord slices; type: cell-based, rat; conditions: 6 slices; p > 0.05
Description: Sprague–Dawley rats (male and female at postnatal days P15-P23) were anaesthetized with isoflurane and decapitated. The spinal cord and vertebrae were rapidly removed and placed in ice-cold dissecting Krebs' solution (composition in mM: 90 NaCl, 50 sucrose, 2.5 KCl, 25 NaHCO3, 1 NaH2PO4·H2O, 25 glucose, 6 MgCl2, 1.5 CaCl2, 1 kynurenic acid), bubbled with carboxygen (95% O2, 5% CO2). The lumbar part of the spinal cord was isolated, embedded in low melting point agarose (3% w/v, Thermo Fisher Scientific, Waltham, United States), and transverse slices (500 µm thick) were obtained using a vibrating microtome (WPI, Sarasota, United States). […]
Neurons in spinal cord slices were visualized using an Axioskop microscope (Zeiss, Oberkochen, Germany), fitted with Nomarski optics and connected to a CCD camera (Dage-MTI, Michigan City, United States). […] Data were recorded and acquired using a MultiClamp 700A amplifier and the pClamp 10 software (Molecular Devices, Sunnyvale, United States). […] Extracellular field potentials were recorded by positioning a glass pipette (3–5 µm diameter, filled with Krebs' extracellular solution) on lamina II in spinal cord slices. […]
To determine whether the effect of CR4056 on NMDA EPSCs was due to a decrease of glutamate release from primary afferents or to a modulation of NMDARs, we recorded extracellular field potentials evoked by dorsal root stimulation (Figure 4E). […]

GluN1-GluN2B receptors = GluN1-GluN2B receptors (Homo sapiens, UniProt Q05586+Q13224); experiment: NMDA-evoked currents in JM4C fibroblasts expressing GluN1-GluN2B; type: cell-based
GluN1-GluN2B receptors, sequence (Q13224 27-1484, other chains not shown): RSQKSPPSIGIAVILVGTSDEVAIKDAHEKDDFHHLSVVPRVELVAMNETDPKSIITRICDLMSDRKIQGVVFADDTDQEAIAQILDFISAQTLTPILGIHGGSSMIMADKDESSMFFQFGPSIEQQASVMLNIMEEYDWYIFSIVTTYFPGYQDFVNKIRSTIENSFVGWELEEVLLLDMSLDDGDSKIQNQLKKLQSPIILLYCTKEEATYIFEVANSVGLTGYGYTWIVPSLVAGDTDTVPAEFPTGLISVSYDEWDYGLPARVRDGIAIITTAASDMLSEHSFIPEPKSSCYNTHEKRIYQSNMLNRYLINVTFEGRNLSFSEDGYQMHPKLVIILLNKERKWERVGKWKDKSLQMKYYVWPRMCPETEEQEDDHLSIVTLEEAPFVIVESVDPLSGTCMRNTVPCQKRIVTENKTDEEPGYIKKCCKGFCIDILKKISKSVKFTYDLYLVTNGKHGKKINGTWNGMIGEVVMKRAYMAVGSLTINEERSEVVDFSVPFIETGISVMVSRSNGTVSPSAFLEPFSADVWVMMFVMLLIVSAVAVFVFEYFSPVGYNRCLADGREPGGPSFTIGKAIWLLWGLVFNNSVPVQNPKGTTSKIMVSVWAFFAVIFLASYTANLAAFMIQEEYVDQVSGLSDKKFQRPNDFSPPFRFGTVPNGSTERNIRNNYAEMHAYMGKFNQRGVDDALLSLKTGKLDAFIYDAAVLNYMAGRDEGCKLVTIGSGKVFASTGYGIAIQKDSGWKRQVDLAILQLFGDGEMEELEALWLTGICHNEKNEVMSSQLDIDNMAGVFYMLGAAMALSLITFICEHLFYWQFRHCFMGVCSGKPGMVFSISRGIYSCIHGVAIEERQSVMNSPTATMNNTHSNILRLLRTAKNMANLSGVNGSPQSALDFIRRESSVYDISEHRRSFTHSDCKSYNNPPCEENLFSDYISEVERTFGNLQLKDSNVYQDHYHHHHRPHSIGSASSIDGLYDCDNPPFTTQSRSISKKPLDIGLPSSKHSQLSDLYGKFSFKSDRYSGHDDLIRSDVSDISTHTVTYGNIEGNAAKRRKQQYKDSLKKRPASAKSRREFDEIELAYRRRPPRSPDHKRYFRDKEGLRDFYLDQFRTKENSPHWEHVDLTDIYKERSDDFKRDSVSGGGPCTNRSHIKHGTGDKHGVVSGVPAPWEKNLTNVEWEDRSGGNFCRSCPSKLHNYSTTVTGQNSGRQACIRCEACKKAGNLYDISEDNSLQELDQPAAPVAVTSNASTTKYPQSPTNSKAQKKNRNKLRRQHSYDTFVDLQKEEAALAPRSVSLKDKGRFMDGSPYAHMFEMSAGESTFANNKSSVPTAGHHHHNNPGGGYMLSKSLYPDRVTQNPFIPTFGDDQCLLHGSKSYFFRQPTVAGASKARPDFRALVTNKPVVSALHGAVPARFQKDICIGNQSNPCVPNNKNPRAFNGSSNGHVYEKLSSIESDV
Protocol: (§5) Mouse connective tissue fibroblasts JM4C cells stably transfected with NR1A/NR2A or NR1A/NR2B human NMDA inducible receptors were kindly donated by Dr. Paul Whiting, Merk Sharp / Dohme (UK). They were grown in Dulbecco's Modified Basal Eagle's medium (DMEM) with Na+ pyruvate, 4,500 mg glucose and glutamine. For growing, DMEM was added with geneticin 1 mg/ml (Sigma) and foetal bovine serum 10% (Celbio). One day before experiment, fibroblasts confluent dishes were split with trypsin-EDTA 0.05% (Euroclone) and plated at the density of 0.5 × 10^6 cells/ml in 2 ml dishes containing an inducing DMEM with ketamine (final concentration 0.015%, Gellini International, Italy) and 25 nM dexamethasone (Sigma Aldrich) to induce NMDA receptors expression.
as §2, §3, §4
(§6) Increasing concentrations of CR4056 (0.1–100 µM) were applied to NMDA-evoked currents in fibroblasts expressing GluN1- GluN2A or GluN1- GluN2B subunits (Figure 3A).

[4] = system: NMDA-mediated postsynaptic excitatory currents (EPSCs); experiment: NMDA EPSCs evoked by dorsal root stimulation in lamina II neurons of spinal cord slices; type: cell-based, rat
Description: (§7) Sprague–Dawley rats (male and female at postnatal days P15-P23) were anaesthetized with isoflurane and decapitated. The spinal cord and vertebrae were rapidly removed and placed in ice-cold dissecting Krebs' solution (composition in mM: 90 NaCl, 50 sucrose, 2.5 KCl, 25 NaHCO3, 1 NaH2PO4·H2O, 25 glucose, 6 MgCl2, 1.5 CaCl2, 1 kynurenic acid), bubbled with carboxygen (95% O2, 5% CO2). The lumbar part of the spinal cord was isolated, embedded in low melting point agarose (3% w/v, Thermo Fisher Scientific, Waltham, United States), and transverse slices (500 µm thick) were obtained using a vibrating microtome (WPI, Sarasota, United States). Slices were incubated in oxygenated incubation Krebs' solution (composition in mM: 125 NaCl, 2.5 KCl, 25 NaHCO3, 1 NaH2PO4·H2O, 25 glucose, 6 MgCl2, 1.5 CaCl2) at 32°C for 30 min and then used for recording.
Neurons in spinal cord slices were visualized using an Axioskop microscope (Zeiss, Oberkochen, Germany), fitted with Nomarski optics and connected to a CCD camera (Dage-MTI, Michigan City, United States). Patch-clamp recordings were performed by using thick-walled borosilicate pipettes (3–5 MOhm resistance). Data were recorded and acquired using a MultiClamp 700A amplifier and the pClamp 10 software (Molecular Devices, Sunnyvale, United States). Sampling rate was 10 kHz, and data were filtered at 2–5 kHz. The dorsal root attached to each slice was stimulated using a suction electrode. Stimulus duration was 0.1 ms, stimulus intensity was 500 µA, able to activate both A and C primary afferent fibers ([20]). Extracellular field potentials were recorded by positioning a glass pipette (3–5 µm diameter, filled with Krebs' extracellular solution) on lamina II in spinal cord slices. […]
We next investigated the modulatory effect of CR4056 on NMDA-mediated postsynaptic excitatory currents (EPSCs) recorded from lamina II neurons in rat spinal cord slices. […] To isolate NMDA EPSCs (recorded in voltage clamp at +40 mV), AMPA, GABAA and glycine receptors were blocked by NBQX (10 µM), bicuculline (10 µM), and strychnine (0.5 µM), respectively. […]

[5] = system: lamina II neuron excitability; experiment: Current-clamp recording of summated EPSPs and action potentials on repetitive dorsal root stimulation; type: cell-based, rat
Description: as §7
Neurons in spinal cord slices were visualized using an Axioskop microscope (Zeiss, Oberkochen, Germany), fitted with Nomarski optics and connected to a CCD camera (Dage-MTI, Michigan City, United States). Patch-clamp recordings were performed by using thick-walled borosilicate pipettes (3–5 MOhm resistance). Data were recorded and acquired using a MultiClamp 700A amplifier and the pClamp 10 software (Molecular Devices, Sunnyvale, United States). Sampling rate was 10 kHz, and data were filtered at 2–5 kHz. The dorsal root attached to each slice was stimulated using a suction electrode. Stimulus duration was 0.1 ms, stimulus intensity was 500 µA, able to activate both A and C primary afferent fibers ([20]). Extracellular field potentials were recorded by positioning a glass pipette (3–5 µm diameter, filled with Krebs' extracellular solution) on lamina II in spinal cord slices. Extracellular synaptic potentials were evoked by dorsal root stimulation, as described above, and amplified by using a Multiclamp 700A amplifier (Molecular Devices, Sunnyvale, United States).
For the experiments on neurons in slices the following Krebs' extracellular solution was used (composition in mM): 125 NaCl, 2.5 KCl, 25 NaHCO3, 1 NaH2PO4·H2O, 25 glucose, 1 MgCl2, 2 CaCl2. A cesium-based internal solution was used during the voltage-clamp experiments (composition in mM: 120 caesium methanesulfonate, 10 sodium methanesulfonate, 10 EGTA, 1 CaCl2, 10 Hepes, 5 lidocaine N-ethyl bromide quaternary salt-Cl, 5 MgATP, pH adjusted to 7.2 with CsOH, osmolarity 290 mOsmol L^−1), while a potassium-based solution was utilized for the experiments in current-clamp (composition in mM: 120 potassium methanesulfonate, 10 NaCl, 10 EGTA, 1 CaCl2, 10 Hepes, 5 MgATP, pH adjusted to 7.2 with KOH, osmolarity 300 mOsmol L^−1).
Finally, we tested whether CR4056 was able to depress lamina II neuron excitability in response to repetitive stimulation of the dorsal root. […]

[6] = target: GluN1-GluN2A containing receptors (Homo sapiens, UniProt Q05586+Q12879); experiment: NMDA-evoked currents in JM4C fibroblasts expressing GluN1-GluN2A; type: cell-based
GluN1-GluN2A containing receptors, sequence (Q12879 23-1464, other chains not shown): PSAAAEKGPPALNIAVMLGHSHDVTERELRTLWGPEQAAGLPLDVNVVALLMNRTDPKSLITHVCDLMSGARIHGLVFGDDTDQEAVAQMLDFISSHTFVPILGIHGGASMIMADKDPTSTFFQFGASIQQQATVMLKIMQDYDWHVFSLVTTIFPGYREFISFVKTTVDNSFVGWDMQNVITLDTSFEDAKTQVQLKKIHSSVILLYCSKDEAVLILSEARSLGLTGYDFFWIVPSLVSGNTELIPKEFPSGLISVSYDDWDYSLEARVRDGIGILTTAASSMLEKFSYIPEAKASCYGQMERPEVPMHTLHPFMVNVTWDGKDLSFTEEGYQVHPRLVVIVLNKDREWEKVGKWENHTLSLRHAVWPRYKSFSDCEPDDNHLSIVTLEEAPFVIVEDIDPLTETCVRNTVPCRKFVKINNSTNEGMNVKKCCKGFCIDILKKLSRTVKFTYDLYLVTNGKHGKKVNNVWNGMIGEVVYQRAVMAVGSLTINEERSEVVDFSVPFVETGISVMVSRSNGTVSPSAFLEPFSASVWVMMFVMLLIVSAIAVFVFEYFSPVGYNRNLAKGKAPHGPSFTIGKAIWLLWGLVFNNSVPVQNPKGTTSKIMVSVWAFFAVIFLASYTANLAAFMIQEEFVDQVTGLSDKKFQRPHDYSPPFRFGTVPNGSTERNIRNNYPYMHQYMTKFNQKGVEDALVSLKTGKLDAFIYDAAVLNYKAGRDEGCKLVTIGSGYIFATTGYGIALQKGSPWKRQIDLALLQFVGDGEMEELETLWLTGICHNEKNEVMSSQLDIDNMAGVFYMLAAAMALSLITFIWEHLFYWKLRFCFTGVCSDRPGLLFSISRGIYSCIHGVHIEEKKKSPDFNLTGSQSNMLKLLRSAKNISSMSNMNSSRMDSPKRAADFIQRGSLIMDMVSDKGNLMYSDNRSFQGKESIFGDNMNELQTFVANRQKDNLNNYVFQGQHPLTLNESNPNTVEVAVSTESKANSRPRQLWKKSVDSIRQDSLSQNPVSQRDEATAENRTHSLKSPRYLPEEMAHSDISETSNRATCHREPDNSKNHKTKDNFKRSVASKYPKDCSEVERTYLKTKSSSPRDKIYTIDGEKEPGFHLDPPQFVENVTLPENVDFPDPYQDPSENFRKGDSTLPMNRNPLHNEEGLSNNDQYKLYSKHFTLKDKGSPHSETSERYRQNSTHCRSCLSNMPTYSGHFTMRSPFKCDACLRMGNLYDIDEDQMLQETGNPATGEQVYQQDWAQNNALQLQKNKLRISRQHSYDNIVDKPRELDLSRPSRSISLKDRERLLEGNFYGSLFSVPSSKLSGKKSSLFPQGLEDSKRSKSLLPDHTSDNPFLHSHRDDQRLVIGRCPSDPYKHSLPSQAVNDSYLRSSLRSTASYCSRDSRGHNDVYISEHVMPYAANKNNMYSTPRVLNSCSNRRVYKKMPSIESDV
Protocol: as §5, §2, §3, §4, §6

PKCε translocation = system: PKCε translocation; set-up: method as in PMID 31454418; conditions: activated sensory neurons, cultured DRG; cited from earlier work
[7] = CR4056 10 µM, 4 pulses 5–10 Hz, 500 µA

SMILES: c1ccc2c(c1)OCC(C1=NCCN1)O2 (stereo not drawn) [Idazoxan, reference compound]
- effect on NMDA-elicited current applied alone (NMDA receptor [1]; 10 µM): did not affect

SMILES: c1ccc(-c2ncc3cc(-n4ccnc4)ccc3n2)cc1 [CR4056, 2-phenyl-6-(1H-imidazol-1yl)quinazoline]
- effect on NMDA current at high glycine concentrations (NMDA receptor [2]): significatively reduced
- effect on field potential area [3]: did not affect
- change of amplitude of NMDA currents, compound dialyzed inside the cell via patch pipette (NMDA receptor [1]; 10 µM intracellular, p > 0.05, t-test): did not change significantly
- CR4056 effect on NMDA current when co-applied with idazoxan (NMDA receptor [1]; CR4056 10 µM + idazoxan 10 µM): does not change CR4056 effect
- reduction of current evoked by increasing NMDA concentration (type of antagonism) (NMDA receptor [1]; CR4056 10 µM, NMDA 10 to 100 µM): reduced to the same extent
- reduction of NMDA currents in control vs after pertussis toxin (NMDA receptor [1]; PTX 200 ng/ml for 24 h): no statistically significant differences
- effect on NMDA current at high glycine concentrations (NMDA receptor [1]; cortical neurons, CR4056 10 µM, glycine 1-500 µM, one-way ANOVA): significatively reduced
- IC50 (NMDA receptor [1]; cortical neurons, NMDA 100 µM + glycine 10 µM, read-out: IC50 of reduction of NMDA-evoked current): 5.3 ± 0.1 µM
- maximal reduction of NMDA current (efficacy) (NMDA receptor [1]; cortical neurons, from dose-response curve): 84.4 ± 6%
- reduction of NMDA-evoked current at +40 mV (NMDA receptor [1]; holding potential +40 mV, CR4056 10 µM): −31 ± 1%
- reduction of NMDA-evoked current at −40 mV (NMDA receptor [1]; holding potential −40 mV, CR4056 10 µM): −33 ± 4%
- IC50 (GluN1-GluN2B receptors; 0.1–100 µM, read-out: IC50 of reduction of NMDA-evoked current, GluN1-GluN2B): 11 ± 2 µM
- Emax (GluN1-GluN2B receptors; read-out: efficacy (Eff, maximal effect) on NMDA-evoked current, GluN1-GluN2B): -86 ± 6%
- average reduction in NMDA EPSC amplitude ([4]; CR4056 10 µM, +40 mV, NBQX, bicuculline, strychnine present, 7 neurons): 26.3 ± 4.2%
- EPSC amplitude in WASH, mean ([4]; after washing of CR4056, N 7): 514.986 pA
- EPSC amplitude in CR, mean ([4]; during CR4056, N 7, control mean 597.629): 475.443 pA
- change of area of the summated EPSPs [5, 7]: −29.7 ± 5.4%
- change of mean number of action potentials generated at each train [5, 7]: −50.9 ± 12.6%
- EPSP area in CR, mean ([5]; during CR4056, N 7, control mean 11858.457): 8924.714 mV*ms
- N action potentials/train in CR, median ([5]; during CR4056, N 7, control median 0.310): 0.150
- IC50 ([6]; 0.1–100 µM, read-out: IC50 of reduction of NMDA-evoked current, GluN1-GluN2A): 21 ± 12 µM
- Emax ([6]; read-out: efficacy (Eff, maximal effect) on NMDA-evoked current, GluN1-GluN2A): -47 ± 3%
- effect on PKCε translocation (PKCε translocation): reduces PKCε translocation
